Measurements taken from patent US5220064A, “Substituted 4'-hydroxyphenylacetic acid derivatives having antiinflammatory and analgesic activity” (Warner-Lambert Company, priority 1989, dated 1993).

Test system: mice
Experiment: acetic acid-induced stretching/writhing test in mice (based on Koster et al.)
Type: in vivo
Conditions: Mus musculus, sc; subcutaneous, 30 minutes before peritoneal acetic acid (100 mg/kg); mice fasted 24 hours; 15 minute observation; read-out: ED50 (amount producing the desired inhibition of stretching or "writhing" in 50 percent of a population)
From the text: Illustrative examples of the activity for use as described above for the novel compounds of the present invention are shown as the compound of the noted examples described in the following material when administered in a test based on that of Koster et al. [Fed. Proc., Vol. 18 (1959), p. 412] in which the peritoneal injection of acetic acid to mice provokes repeated stretching and twisting movements which persist for more than six hours. Analgesics prevent or suppress these syndromes which are considered to be an exteriorization of a diffuse abdominal pain. A 1% solution of acetic acid in water is used at a dose of 0.01 ml/g or 100 mg/kg of acetic acid to release the syndrome.
The compound to be tested is subcutaneously administered 30 minutes before the acetic acid injection and the mice are fasted 24 hours before the start of the test. The stretching for the mice is observed and totaled for each mouse in a 15 minute observation period starting just after the acetic acid injection. The results are expressed as mg/kg which amount produces the desired inhibition of stretching or "writhing" in 50 percent of a population.

| SMILES | ED50 [mg/kg] |
| --- | --- |
| CCCCCCCCNC(=O)Cc1ccc(O)c(Cl)c1 [Example 1, Benzeneacetamide, 3-Chloro-4-hydroxy-N-octyl-] | 6.1 |
| CCCCCCCCNC(=O)Cc1ccc(O)c(Br)c1 [Example 2, Benzeneacetamide, 3-Bromo-4-hydroxy-N-octyl-] | 2.5 |
| CCCCCCCCNC(=O)Cc1ccc(O)c(F)c1 [Example 3, Benzeneacetamide, 3-Fluoro-4-hydroxy-N-octyl-] | 3.2 |
